pIC50: −log10 of the molar value.
The compounds below were run against T1, human TLR9 (Homo sapiens, UniProt Q9NR96) (assay: HEK293-Blue-hTLR-9 cells assay). Conditions: HEK293-Blue-hTLR9 cells, SEAP reporter, ODN2006 stimulation, 20 hrs.
T1 sequence (Q9NR96 26-1032): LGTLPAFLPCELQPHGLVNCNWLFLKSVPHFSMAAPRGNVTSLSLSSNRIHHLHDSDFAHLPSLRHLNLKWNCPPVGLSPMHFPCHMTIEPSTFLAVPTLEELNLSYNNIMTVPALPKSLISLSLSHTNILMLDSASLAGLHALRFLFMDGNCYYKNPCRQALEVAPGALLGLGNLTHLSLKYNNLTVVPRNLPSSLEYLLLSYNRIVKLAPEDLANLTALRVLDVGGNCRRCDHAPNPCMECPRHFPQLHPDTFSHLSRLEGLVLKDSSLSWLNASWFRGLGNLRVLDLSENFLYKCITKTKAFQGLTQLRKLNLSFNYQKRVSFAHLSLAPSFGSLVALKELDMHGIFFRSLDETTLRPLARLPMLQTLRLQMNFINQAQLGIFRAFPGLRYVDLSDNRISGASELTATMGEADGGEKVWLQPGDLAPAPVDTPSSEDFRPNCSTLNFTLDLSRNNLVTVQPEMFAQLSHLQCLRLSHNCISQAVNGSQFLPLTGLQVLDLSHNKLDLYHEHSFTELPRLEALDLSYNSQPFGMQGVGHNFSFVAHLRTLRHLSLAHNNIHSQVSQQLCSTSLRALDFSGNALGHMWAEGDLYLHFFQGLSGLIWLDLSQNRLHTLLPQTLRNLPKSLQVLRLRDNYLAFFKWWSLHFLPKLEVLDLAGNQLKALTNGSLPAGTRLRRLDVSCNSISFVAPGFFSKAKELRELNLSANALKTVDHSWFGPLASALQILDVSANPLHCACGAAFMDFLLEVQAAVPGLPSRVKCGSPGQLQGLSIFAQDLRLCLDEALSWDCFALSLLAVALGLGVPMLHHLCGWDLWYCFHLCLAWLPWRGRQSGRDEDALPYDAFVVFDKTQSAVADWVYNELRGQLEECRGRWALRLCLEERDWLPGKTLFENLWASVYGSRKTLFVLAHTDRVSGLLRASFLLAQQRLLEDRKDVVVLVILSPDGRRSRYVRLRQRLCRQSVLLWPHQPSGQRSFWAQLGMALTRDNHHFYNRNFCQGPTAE
Format: cell-based
From the text: HEK293-Blue-hTLR-9 Cells Assay:
A stable HEK293-Blue-hTLR-9 cell line was purchased from InvivoGen (Cat. #: hkb-htlh9, San Diego, Calif., USA). These cells were originally designed for studying the stimulation of human TLR9 by monitoring the activation of NF-κB. A SEAP (secreted embryonic alkaline phosphatase) reporter gene was placed under the control of the IFN-β minimal promoter fused to five NF-κB and AP-1-binding sites. The SEAP was induced by activating NF-κB and AP-1 via stimulating HEK-Blue hTLR9 cells with TLR9 ligands. Therefore the reporter expression was declined by TLR9 antagonist under the stimulation of a ligand, such as ODN2006 (Cat. #: tlrl-2006-1, Invivogen, San Diego, Calif., USA), for incubation of 20 hrs. The cell culture supernatant SEAP reporter activity was determined using QUANTI-Blue™ kit (Cat. #: rep-qb1, Invivogen, San Diego, Calif., USA) at a wavelength of 640 nm, a detection medium that turns purple or blue in the presence of alkaline phosphatase.
HEK293-Blue-hTLR9 cells were incubated at a density of 250,000-450,000 cells/mL in a volume of 170 μL in a 96-well plate in Dulbecco's Modified Eagle's medium (DMEM) containing 4.5 g/L glucose, 50 U/mL penicillin, […], […], 2 mM L-glutamine, 10% (v/v) heat-inactivated fetal bovine serum with addition of 20 sL test compound in a serial dilution in the presence of final DMSO at 1% and 10 sL of 20 uM ODN2006 in above DMEM, perform incubation under 37° C. in a CO2 incubator for 20 hrs. Then 20 sL of the supernatant from each well was incubated with 180 μL Quanti-blue substrate solution at 37° C. for 2 hrs and the absorbance was read at 620-655 nm using a spectrophotometer. The signalling pathway that TLR9 activation leads to downstream NF-x3B activation has been widely accepted, and therefore similar reporter assay was modified for evaluating TLR9 antagonist.

Row | pIC50 | Compound
1 | 5.14 | O=C(NC1CC2CNCC(C2)C1)C1CN(c2ccc(C(F)(F)F)c3nccnc23)CC12CC2 (stereo not shown) [Example 15, N-(3-azabicyclo[3.3.1]nonan-7-yl)-5-[8-(trifluoromethyl)quinoxalin-5-yl]-5-azaspiro[2.4]heptane-7-carboxamide]
2 | 4.85 | O=C(NC1CC2CNCC2C1)C1CN(c2ccc(C(F)(F)F)c3nccnc23)CC12CC2 (stereo not shown) [Example 21, N-(1,2,3,3a,4,5,6,6a-octahydrocyclopenta[c]pyrrol-5-yl)-5-[8-(trifluoromethyl)quinoxalin-5-yl]-5-azaspiro[2.4]heptane-7-carboxamide]
3 | 5.09 | NC1CC2(C1)CC(NC(=O)C1CN(c3ccc(C(F)(F)F)c4nccnc34)CC13CC3)C2 (stereo not shown) [Example 22, N-(6-aminospiro[3.3]heptan-2-yl)-5-[8-(trifluoromethyl)quinoxalin-5-yl]-5-azaspiro[2.4]heptane-7-carboxamide]
4 | 4.56 | N[C@H]1CC[C@H](NC(=O)C2CN(c3ccc(C(F)(F)F)c4nccnc34)CC23CC3)CC1 (stereo partly shown) [Example 24, N-(4-aminocyclohexyl)-5-[8-(trifluoromethyl)quinoxalin-5-yl]-5-azaspiro[2.4]heptane-7-carboxamide]
5 | 4.94 | CN(C)CC1CC(NC(=O)C2CN(c3ccc(C(F)(F)F)c4nccnc34)CC23CC3)C1 (stereo not shown) [Example 26, N-[3-[(dimethylamino)methyl]cyclobutyl]-5-[8-(trifluoromethyl)quinoxalin-5-yl]-5-azaspiro[2.4]heptane-7-carboxamide]
6 | 5.03 | NC1CC(CNC(=O)C2CN(c3ccc(C(F)(F)F)c4nccnc34)CC23CC3)C1 (stereo not shown) [Example 31, N-[(3-aminocyclobutyl)methyl]-5-[8-(trifluoromethyl)quinoxalin-5-yl]-5-azaspiro[2.4]heptane-7-carboxamide]
7 | 4.91 | NC1CC(NC(=O)C2CN(c3ccc(C(F)(F)F)c4nccnc34)CC23CC3)C1 (stereo not shown) [Example 38, N-(3-Aminocyclobutyl)-5-[8-(trifluoromethyl)quinoxalin-5-yl]-5-azaspiro[2.4]heptane-7-carboxamide]
8 | 4.68 | N[C@H]1CC[C@@H](NC(=O)C2CN(c3ccc(C(F)(F)F)c4nccnc34)CC23CC3)CC1 (stereo partly shown) [Example 39, N-(4-Aminocyclohexyl)-5-[8-(trifluoromethyl)quinoxalin-5-yl]-5-azaspiro[2.4]heptane-7-carboxamide]

More lines, now with the values behind:

Row | Compound | pIC50
9 | O=C(NC1CC2COCC(C1)N2)C1CN(c2ccc(C(F)(F)F)c3nccnc23)CC12CC2 (stereo not shown) [Example 6, N-(3-oxa-9-azabicyclo[3.3.1]nonan-7-yl)-5-[8-(trifluoromethyl)quinoxalin-5-yl]-5-azaspiro[2.4]heptane-7-carboxamide] | 5.85
10 | O=C(NC1C2CCCC1CNC2)C1CN(c2ccc(C(F)(F)F)c3nccnc23)CC12CC2 (stereo not shown) [Example 8, N-(3-azabicyclo[3.3.1]nonan-9-yl)-5-[8-(trifluoromethyl)quinoxalin-5-yl]-5-azaspiro[2.4]heptane-7-carboxamide] | 5.08
11 | O=C(NC1CC2CCCC(C1)N2)C1CN(c2ccc(C(F)(F)F)c3nccnc23)CC12CC2 (stereo not shown) [Example 10, N-(9-azabicyclo[3.3.1]nonan-3-yl)-5-[8-(trifluoromethyl)quinoxalin-5-yl]-5-azaspiro[2.4]heptane-7-carboxamide] | 5.02
12 | CN1CCC(NC(=O)C2CN(c3ccc(C(F)(F)F)c4nccnc34)CC23CC3)CC1 (stereo not shown) [Example 11, N-(1-methyl-4-piperidyl)-5-[8-(trifluoromethyl)quinoxalin-5-yl]-5-azaspiro[2.4]heptane-7-carboxamide] | 6.00
13 | O=C(NC1C2CCC1CNC2)C1CN(c2ccc(C(F)(F)F)c3nccnc23)CC12CC2 (stereo not shown) [Example 12, N-(3-azabicyclo[3.2.1]octan-8-yl)-5-[8-(trifluoromethyl)quinoxalin-5-yl]-5-azaspiro[2.4]heptane-7-carboxamide] | 6.00
14 | N#Cc1ccc(N2CC(C(=O)NCC3CNCCO3)C3(CC3)C2)c2nccnc12 (stereo not shown) [Example 13, 5-(8-Cyanoquinoxalin-5-yl)-N-(morpholin-2-ylmethyl)-5-azaspiro[2.4]heptane-7-carboxamide] | 5.68
15 | C[C@H]1CN(c2ccc(C#N)c3ncccc23)C[C@@H]1C(=O)NC1CCN(C)CC1 [Example 16, (3R,4R)-1-(8-cyano-5-quinolyl)-4-methyl-N-(1-methyl-4-piperidyl)pyrrolidine-3-carboxamide] | 5.34
16 | CN1CCC(NC(=O)C2CN(c3ccc(C#N)c4ncccc34)CC2C(F)(F)F)CC1 (stereo not shown) [Example 18, 1-(8-Cyano-5-quinolyl)-N-(1-methyl-4-piperidyl)-4-(trifluoromethyl)pyrrolidine-3-carboxamide] | 4.97
17 | CN1CC(NC(=O)C2CN(c3ccc(C(F)(F)F)c4nccnc34)CC23CC3)C2(CC2)C1 (stereo not shown) [Example 20, N-(5-methyl-5-azaspiro[2.4]heptan-7-yl)-5-[8-(trifluoromethyl)quinoxalin-5-yl]-5-azaspiro[2.4]heptane-7-carboxamide] | 4.88
18 | O=C(NC1CC2CCC(C1)N2)C1CN(c2ccc(C(F)(F)F)c3nccnc23)CC12CC2 (stereo not shown) [Example 23, N-(8-azabicyclo[3.2.1]octan-3-yl)-5-[8-(trifluoromethyl)quinoxalin-5-yl]-5-azaspiro[2.4]heptane-7-carboxamide] | 4.98
19 | C[C@@H]1CN(c2ccc(C(F)(F)F)c3nccnc23)C[C@H]1C(=O)NC1CCN(C)CC1 [Example 25, (3S,4S)-4-Methyl-N-(1-methyl-4-piperidyl)-1-[8-(trifluoromethyl)quinoxalin-5-yl]pyrrolidine-3-carboxamide] | 4.86
20 | C[C@H]1CN(c2ccc([N+](=O)[O-])c3ncccc23)C[C@@H]1C(=O)NC1CCN(C)CC1 [Example 27, (3R,4R)-4-Methyl-N-(1-methyl-4-piperidyl)-1-(8-nitro-5-quinolyl)pyrrolidine-3-carboxamide] | 5.35
21 | Cc1ccc(N2C[C@H](C(=O)NC3CCN(C)CC3)[C@@H](C)C2)c2nccnc12 [Example 33, (3R,4R)-4-Methyl-N-(1-methyl-4-piperidyl)-1-(8-methylquinoxalin-5-yl)pyrrolidine-3-carboxamide] | 4.52
22 | O=C(NC1CC2(CCNCC2)C1)C1CN(c2ccc(C(F)(F)F)c3nccnc23)CC12CC2 (stereo not shown) [Example 34, N-(7-azaspiro[3.5]nonan-2-yl)-5-[8-(trifluoromethyl)quinoxalin-5-yl]-5-azaspiro[2.4]heptane-7-carboxamide] | 4.78
23 | N#Cc1ccc(N2C[C@H](C(=O)NC3CCN(C4CCNCC4)CC3)[C@@H](C(F)(F)F)C2)c2nccnc12 [Example 35, (3R,4R)-1-(8-Cyanoquinoxalin-5-yl)-N-[1-(4-piperidyl)-4-piperidyl]-4-(trifluoromethyl)pyrrolidine-3-carboxamide] | 5.37
24 | N[C@@H]1C[C@H](NC(=O)C2CN(c3ccc(C(F)(F)F)c4nccnc34)CC23CC3)[C@@H]2C[C@@H]21 (stereo partly drawn) [Example 36, N-[(1R,2S,4R,5S)-4-amino-2-bicyclo[3.1.0]hexanyl]-5-[8-(trifluoromethyl)quinoxalin-5-yl]-5-azaspiro[2.4]heptane-7-carboxamide] | 4.66
25 | C[C@H]1CN(c2ccc(C#N)n3nccc23)C[C@@H]1C(=O)NC1CCN(C)CC1 [Example 44, (3R,4R)-1-(7-cyanopyrazolo[1,5-a]pyridin-4-yl)-4-methyl-N-(1-methyl-4 piperidyl)pyrrolidine-3-carboxamide] | 5.04

— US20210323977A1, “PYRROLIDINYL AMIDE COMPOUNDS FOR THE TREATMENT OF AUTOIMMUNE DISEASE” (Hoffmann-La Roche Inc., priority 2018, published 2021)
